Experimental findings from the SangsterLogP compilation are described below.

For orientation: logP means the decadic logarithm of the partition coefficient of the neutral form, usually between octanol and water.

Structures are written as SMILES.

Assay in one series: not given
Regarding `COC(=O)c1ccc(C(=O)OC)c(NC(=O)Cn2c(C)nc3ccccc3c2=O)c1`, the logP amounted to 3.53. Same read-out and setting: the result for `Cc1nc2ccccc2c(=O)n1CC(=O)NNc1ccccc1` reads 1.34.

`Cc1nc2ccccc2c(=O)n1CC(=O)Nc1ccc(S(=O)(=O)NC(=N)N)cc1` returned a lipophilicity (logP) of 0.09.

As to `Cc1nc2ccccc2c(=O)n1CC(=O)N1CCOCC1`, the lipophilicity (logP) came out at 0.45.

`CCN(CC)C(=O)Cn1c(C)nc2ccccc2c1=O` gave a logP of 1.14. `Cc1nc2ccccc2c(=O)n1CC(=O)NCc1ccco1` registered a log partition coefficient (logP) of 1.24. Same read-out and setting: the result for `COC(=O)CNC(=O)Cn1c(C)nc2ccccc2c1=O` reads 0.44. On the same count and under the same terms, as for `Cc1cc(C)nc(NS(=O)(=O)c2ccc(NC(=O)Cn3c(C)nc4ccccc4c3=O)cc2)n1`, the figure is 0.7; as for `Cc1nc2ccccc2c(=O)n1CC(=O)Nc1c(C)n(C)n(-c2ccccc2)c1=O`, 1.07. On the same count and under the same terms, as for `COC(=O)c1cc(NC(=O)Cn2c(C)nc3ccccc3c2=O)cc(C(=O)OC)c1`, the figure is 2.98; as for `Cc1nc2ccccc2c(=O)n1CC(=O)NCc1ccccc1`, 1.78. In turn, `CCOC(=O)c1nc2ccccc2c(=O)[nH]1` yielded a logP of 0.64. On the same count and under the same terms, the result for `Cc1nc2ccccc2c(=O)n1CC(=O)N1CCCCC1` reads 1.42. Same read-out and setting: the result for `CCOc1ccc(NC(=O)Cn2c(C)nc3ccccc3c2=O)cc1` reads 2.19.

The next series is described as follows: method code SF, from PMID: 10544519.
`Cc1nc2ccccc2c(=O)n1CC(=O)O`: the log partition coefficient (logP) amounted to 0.08. Same read-out and setting: as for `Cc1nc2ccccc2c(=O)n1CCC(=O)O`, the figure is 0.64. For the compound `COC(=O)Cn1c(C)nc2ccccc2c1=O`, the logP was 1.46.
